Read-outs that look alike come from different tables or passages of the source.
Experiments:
[1] = target: T1, full-length NS3/NS4A-2 (HCV NS3 protease) (Hepatitis C virus genotype 1a, UniProt P27958); test: NS3-NS4 protease assay / NS3 inhibition assay (RETS1 substrate, fluorescence kinetic read); assay type: biochemical
T1 construct: Recombinant E. coli or Baculovirus full-length NS3 was diluted to 3.33 μM with assay buffer; made in house; host or cells: E. coli or baculovirus (BV) expression system
T1 sequence (P27958 1027-1657): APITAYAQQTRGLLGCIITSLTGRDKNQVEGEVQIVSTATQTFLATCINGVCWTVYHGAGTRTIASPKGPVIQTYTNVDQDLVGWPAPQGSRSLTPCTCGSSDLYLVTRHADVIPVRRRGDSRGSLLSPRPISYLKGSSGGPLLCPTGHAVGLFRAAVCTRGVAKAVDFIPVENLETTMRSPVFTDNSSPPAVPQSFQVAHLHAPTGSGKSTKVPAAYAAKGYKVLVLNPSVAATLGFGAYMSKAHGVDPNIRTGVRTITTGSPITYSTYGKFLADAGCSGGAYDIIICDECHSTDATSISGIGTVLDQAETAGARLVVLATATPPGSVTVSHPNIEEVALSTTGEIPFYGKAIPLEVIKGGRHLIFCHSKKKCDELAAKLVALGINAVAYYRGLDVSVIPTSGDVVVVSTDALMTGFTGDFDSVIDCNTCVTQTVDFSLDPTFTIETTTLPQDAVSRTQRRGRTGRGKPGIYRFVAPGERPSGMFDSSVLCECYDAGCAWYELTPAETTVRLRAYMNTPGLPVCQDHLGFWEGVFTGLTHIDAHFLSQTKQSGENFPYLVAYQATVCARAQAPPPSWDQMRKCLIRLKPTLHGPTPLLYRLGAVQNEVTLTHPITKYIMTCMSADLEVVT
In short: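 Full-length NS3 from E. coli (2 nM in assay) or baculovirus (3 nM) was precomplexed with excess NS4A-2 peptide, then preincubated 10 min at room temperature with serially diluted compounds starting at 50 microM. Reaction was started with RETS1 substrate at 8 μM before addition and read kinetically for 30 min (ex 335/em 495 nm). Four-parameter IC50s were converted to Ki by Cheng-Prusoff using Km 2.03 μM (E. coli) or 1.74 μM (BV).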

[2] = test system: HCV sub-genomic replicon in GS4.3 cells (HuH-7 hepatoma cells); test: Quantitation by ELISA of Neomycin phosphotransferase II (NPTII) in the HCV sub-genomic replicon, GS4.3; assay type: cell-based, hepatitis C virus; settings: Hepatitis C virus, Huh-7; GS4.3 cells, 72 h incubation, NPTII ELISA; read-out: Replicon EC50
In short: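 HuH-7 GS4.3 cells carrying HCV sub-genomic replicon 1377/NS3-3′, treated 72 h at 37 °C without G418 with 3-fold dilutions from 10 μM to 56 pM (1% DMSO). NPTII in cell lysates measured by direct ELISA with TMB readout at 450 nm. EC50 from 4-parameter fit of percent DMSO-control signal.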

[3] = recombinant E. coli or Baculovirus full-length NS3 with NS4A-2, read-out: NS3-NS4 IC50

Structure (SMILES)	IC50 [1, 3]	EC50 [2]	IC50 [1]
O=C(N[C@H]1CCCCC/C=C\[C@@H]2C[C@@]2(C(=O)NS(=O)(=O)NCC(F)(F)F)NC(=O)[C@@H]2C[C@@H](OC(=O)N3Cc4cccc(F)c4C3)CN2C1=O)OC1CCCC1 [Compound 223]	< 100 nM	< 1000 nM	–
CC(C)(C)CNC(=O)[C@@]12C[C@H]1/C=C\CCCCC[C@H](NC(=O)OC(C)(C)C)C(=O)N1C[C@H](OC(=O)N3Cc4cccc(F)c4C3)C[C@H]1C(=O)N2 [Compound 616]	< 1000 nM	< 1000 nM	–
O=C(CCC(F)(F)F)N[C@H]1CCCCC/C=C\[C@@H]2C[C@@]2(C(=O)NS(=O)(=O)C2CC2)NC(=O)[C@@H]2C[C@@H](OC(=O)N3Cc4cccc(Cl)c4C3)CN2C1=O [Compound 143]	< 100 nM	< 100 nM	–
CC(C)(C)OC(=O)N[C@H]1CCCCC/C=C\[C@@H]2C[C@@]2(C(=O)NCC2(O)CC2)NC(=O)[C@@H]2C[C@@H](OC(=O)N3Cc4cccc(F)c4C3)CN2C1=O [Compound 619]	< 100 nM	< 1000 nM	–
CC(C)(C)OC(=O)N[C@H]1CCCCC/C=C\[C@@H]2C[C@@]2(C(=O)N[C@@H]2CCS(=O)(=O)C2)NC(=O)[C@@H]2C[C@@H](OC(=O)N3Cc4cccc(F)c4C3)CN2C1=O [Compound 633]	< 1000 nM	< 1000 nM	–
O=C1N[C@]2(C(=O)NS(=O)(=O)C3CC3)C[C@H]2/C=C\CCCCC[C@H](Nc2c(N3CCCC3)c(=O)c2=O)C(=O)N2C[C@H](OC(=O)N3Cc4cccc(F)c4C3)C[C@@H]12 [Compound 197]	< 100 nM	< 10000 nM	–
N[C@H]1CCCCC/C=C\[C@@H]2C[C@@]2(C(=O)NS(=O)(=O)C2CC2)NC(=O)[C@@H]2C[C@@H](OC(=O)N3Cc4c(Cl)ccc(Cl)c4C3)CN2C1=O [Compound 156]	–	< 1000 nM	< 100 nM
CC(C)(C)OC(=O)N[C@H]1CCCC(F)(F)C/C=C\[C@@H]2C[C@@]2(C(=O)O)NC(=O)[C@@H]2C[C@@H](OC(=O)N3Cc4cccc(F)c4C3)CN2C1=O [Compound 1006, (2R,6S,13aS,14aR,16aS,Z)-6-(tert-butoxycarbonylamino)-9,9-difluoro-2-(4-fluoroisoindoline-2-carbonyloxy)-5,16-dioxo-1,2,3,5,6,7,8,9,10,11,13a,14,14a,15,16,16a-hexadecahydrocyclopropa(e)prrolo[1,2-a][1,4]diazacyclopentadecine-14a-carboxylic acid]	< 100 nM	< 10000 nM	–
CC(C)(C)OC(=O)N[C@H]1CCCCC/C=C\[C@@H]2C[C@@]2(C(=O)Nc2nccs2)NC(=O)[C@@H]2C[C@@H](OC(=O)N3Cc4cccc(F)c4C3)CN2C1=O [Compound 614]	< 1000 nM	< 1000 nM	–
O=C(N[C@H]1CCCCC/C=C\[C@@H]2C[C@@]2(C(=O)O)NC(=O)[C@@H]2C[C@@H](OC(=O)N3Cc4ccccc4C3)CN2C1=O)C1CC1 [Compound 123]	< 100 nM	< 10000 nM	–
O=C1N[C@]2(C(=O)NS(=O)(=O)C3CC3)C[C@H]2/C=C\CCCCC[C@H](Nc2nc(C(F)(F)F)cs2)C(=O)N2C[C@H](OC(=O)N3Cc4cccc(F)c4C3)C[C@@H]12 [Compound 926]	< 100 nM	< 100 nM	–
O=C1N[C@]2(C(=O)NS(=O)(=O)C3CC3)C[C@H]2/C=C\CCCCC[C@H](Nc2c(N3CCC3)c(=O)c2=O)C(=O)N2C[C@H](OC(=O)N3CCc4ccccc4C3)C[C@@H]12 [Compound 242]	< 100 nM	< 10000 nM	–
CC(C)(C)OC(=O)N[C@H]1CCN(CC(F)(F)F)CC/C=C\[C@@H]2C[C@@]2(C(=O)NS(=O)(=O)C2CC2)NC(=O)[C@@H]2C[C@@H](OC(=O)N3Cc4cccc(F)c4C3)CN2C1=O [Compound 1032]	< 100 nM	< 100 nM	–
CN(C)C(=S)NC(=O)[C@@]12C[C@H]1/C=C\CCCCC[C@H](NC(=O)OC(C)(C)C)C(=O)N1C[C@H](OC(=O)N3Cc4cccc(F)c4C3)C[C@H]1C(=O)N2 [Compound 236]	< 100 nM	< 100 nM	–
CC(C)(C)OC(=O)N[C@H]1CCC(O)CC/C=C\[C@@H]2C[C@@]2(C(=O)O)NC(=O)[C@@H]2C[C@@H](OC(=O)N3Cc4cccc(F)c4C3)CN2C1=O (stereo partly drawn) [Compound 1017]	< 1000 nM	> 10000 nM	–
CC(C)(C)OC(=O)N[C@H]1CCCCC/C=C\[C@@H]2C[C@@]2(C(=O)O)NC(=O)[C@@H]2C[C@@H](OC(=O)N3Cc4ccc(N5CCOCC5)cc4C3)CN2C1=O [Compound 176]	< 100 nM	> 10000 nM	–
CC(C)(C)OC(=O)N[C@H]1CCCCC/C=C\[C@@H]2C[C@@]2(C(=O)NCC2CC2)NC(=O)[C@@H]2C[C@@H](OC(=O)N3Cc4cccc(F)c4C3)CN2C1=O [Compound 603]	< 1000 nM	< 1000 nM	–
N#CNC(=O)[C@@]12C[C@H]1/C=C\CCCCC[C@H](NC(=O)CCC(F)(F)F)C(=O)N1C[C@H](OC(=O)N3Cc4cccc(F)c4C3)CC1C(=O)N2 (stereo partly drawn) [Compound 642]	< 1000 nM	> 10000 nM	–

Structure (SMILES)	IC50 [1, 3]	EC50 [2]	IC50 [1]
CC(C)(C)OC(=O)N[C@H]1CCCCC/C=C\[C@@H]2C[C@@]2(C(=O)NCc2ccc(C(O)C(F)(F)F)cc2)NC(=O)[C@@H]2C[C@@H](OC(=O)N3Cc4cccc(F)c4C3)CN2C1=O (stereo partly drawn) [Compound 606]	< 1000 nM	< 1000 nM	–
O=C(N[C@H]1CCCCC/C=C\[C@@H]2C[C@@]2(C(=O)NS(=O)(=O)N2CCC2)NC(=O)[C@@H]2C[C@@H](OC(=O)N3Cc4cccc(F)c4C3)CN2C1=O)OC1CCCC1 [Compound 217]	< 100 nM	< 100 nM	–
O=C(N[C@H]1CCCCC/C=C\[C@@H]2C[C@@]2(C(=O)NS(=O)(=O)c2cc(Cl)sc2Cl)NC(=O)[C@@H]2C[C@@H](OC(=O)N3Cc4cccc(Cl)c4C3)CN2C1=O)OC1CCCC1 [Compound 174]	< 100 nM	< 100 nM	–
O=C1N[C@]2(C(=O)NS(=O)(=O)C3CC3)C[C@H]2/C=C\CCCCC[C@H](NCc2ccc(F)c(F)c2)C(=O)N2C[C@H](OC(=O)N3Cc4cccc(F)c4C3)C[C@@H]12 [Compound 904]	< 100 nM	< 100 nM	–
CC(C)(C)OC(=O)N[C@H]1CCCCC/C=C\[C@@H]2C[C@@]2(C(=O)NS(=O)(=O)C2CC2)NC(=O)[C@@H]2C[C@@H](OC(=O)N3Cc4c(Cl)ccc(Cl)c4C3)CN2C1=O [Compound 145]	< 100 nM	< 100 nM	–
CC(C)(C)OC(=O)N[C@H]1CCCCC/C=C\[C@@H]2C[C@@]2(C(=O)NS(=O)(=O)N2CCOCC2)NC(=O)[C@@H]2C[C@@H](OC(=O)N3Cc4cccc(Cl)c4C3)CN2C1=O [Compound 207]	< 100 nM	< 100 nM	–
N[C@H]1CCCCC/C=C\[C@@H]2C[C@@]2(C(=O)NS(=O)(=O)C2(Cc3ccccc3)CC2)NC(=O)[C@@H]2C[C@@H](OC(=O)N3Cc4cccc(Cl)c4C3)CN2C1=O [Compound 163]	–	< 10000 nM	< 100 nM
CCCNC(=O)[C@@]12C[C@H]1/C=C\CCCCC[C@H](NC(=O)OC(C)(C)C)C(=O)N1C[C@H](OC(=O)N3Cc4ccccc4C3)C[C@H]1C(=O)N2 [Compound 600]	< 100 nM	< 1000 nM	–
C[C@H](NC(=O)[C@@]12C[C@H]1/C=C\CCCCC[C@H](NC(=O)OC(C)(C)C)C(=O)N1C[C@H](OC(=O)N3Cc4cccc(F)c4C3)C[C@H]1C(=O)N2)c1ccc(F)cn1 [Compound 628]	< 1000 nM	< 1000 nM	–
CNC(=O)[C@@H](NC(=O)[C@@]12C[C@H]1/C=C\CCCCC[C@H](NC(=O)OC(C)(C)C)C(=O)N1C[C@H](OC(=O)N3Cc4cccc(F)c4C3)C[C@H]1C(=O)N2)c1ccc(F)cc1 [Compound 631]	< 100 nM	< 1000 nM	–
CC(C)(CO)C(=O)N[C@H]1CCCCC/C=C\[C@@H]2C[C@@]2(C(=O)NS(=O)(=O)C2CC2)NC(=O)[C@@H]2C[C@@H](OC(=O)N3Cc4cccc(F)c4C3)CN2C1=O [Compound 254]	< 100 nM	< 1000 nM	–
CC(C)Nc1c(N[C@H]2CCCCC/C=C\[C@@H]3C[C@@]3(C(=O)NS(=O)(=O)C3CC3)NC(=O)[C@@H]3C[C@@H](OC(=O)N4Cc5cccc(F)c5C4)CN3C2=O)c(=O)c1=O [Compound 184]	< 100 nM	< 10000 nM	–
O=C(N[C@H]1CCCCC/C=C\[C@@H]2C[C@@]2(C(=O)NS(=O)(=O)NC2CC2)NC(=O)[C@@H]2C[C@@H](OC(=O)N3CCc4ccccc4C3)CN2C1=O)OC1CCCC1 [Compound 231]	< 100 nM	< 100 nM	–
CC(C)(C)OC(=O)N[C@H]1CCCCC/C=C\[C@@H]2C[C@@]2(C(=O)NS(=O)(=O)C2CC2)NC(=O)[C@@H]2C[C@@H](OC(=O)N3Cc4ccc(F)cc4C3)CN2C1=O [Compound 111]	< 100 nM	< 100 nM	–
CC(C)(C)OC(=O)N[C@H]1CCCCC/C=C\[C@@H]2C[C@@]2(C(=O)NS(=O)(=O)C2CC2)NC(=O)[C@@H]2C[C@@H](OC(=O)N3CCc4cccc(Cl)c4C3)CN2C1=O [Compound 255]	< 100 nM	< 100 nM	–
CC(C)(C)OC(=O)N[C@H]1CCCCC/C=C\[C@@H]2C[C@@]2(C(=O)Nc2ccccc2)NC(=O)[C@@H]2C[C@@H](OC(=O)N3Cc4ccccc4C3)CN2C1=O [Compound 601]	< 100 nM	< 1000 nM	–
CN(C)S(=O)(=O)NC(=O)[C@@]12C[C@H]1/C=C\CCCCC[C@H](NC(=O)OC(C)(C)C)C(=O)N1C[C@H](OC(=O)N3Cc4c(Cl)ccc(Cl)c4C3)C[C@H]1C(=O)N2 [Compound 206]	< 100 nM	< 100 nM	–
CC(C)(C)OC(=O)N[C@H]1CCC(F)(F)CC/C=C\[C@@H]2C[C@@]2(C(=O)NS(=O)(=O)C2CC2)NC(=O)[C@@H]2C[C@@H](OC(=O)N3CCc4ccccc4C3)CN2C1=O [Compound 1014]	< 100 nM	< 100 nM	–
